What was measured:
[1] = Quantitative whole body autoradiography, Sprague Dawley rats; type: in vivo; conditions: 1 hr, 50 mg/kg single oral
Experimental: (§1) Two studies were performed to evaluate the concentrations of Compound 1/metabolites in various tissues, including the eyes, following a single dose administration of radiolabeled Compound 1 (^14C-3-[5-(2-fluoro-phenyl)-[1,2,4]oxadiazol-3-yl]benzoic acid) to Sprague Dawley and Long Evans rats.
Sprague Dawley rats: As part of a quantitative whole body autoradiography (QWBA) study, 4 male and 4 female Sprague Dawley rats (albino) obtained from Charles River were administered a single oral gavage dose of 50 mg/kg ^14C-3-[5-(2-fluoro-phenyl)-[1,2,4]oxadiazol-3-yl]benzoic acid.
Animals were individually housed and certified rodent diet and water were provided ad libitum. Animals were acclimated for 8 days prior to dose administration. Environmental controls for the animal room were set to maintain a temperature of 18 to 26° C., a relative humidity of 50±20%, and a 12-hour light/12-hour dark cycle. The 12-hour dark cycle may have been interrupted to accommodate study procedures. Animals were fasted overnight through 4 hours postdose on the day of dosing. At dosing, the animals weighed 204 to 260 g and were approximately 9 to 11 weeks of age. […] The concentrations of ^14C-3-[5-(2-fluoro-phenyl)-[1,2,4]oxadiazol-3-yl]benzoic acid in the eye and related tissues are shown in the following table.

[2] = Quantitative whole body autoradiography, Long Evans rats; type: in vivo; conditions: 50 mg/kg single oral
Experimental: as §1
Long Evans rats: In a quantitative whole body autoradiography (QWBA) study, 8 male Long Evans rats (partially pigmented) obtained from Harlan were administered a single oral gavage dose of 50 mg/kg ^14C-Compound 1.
Animals were individually housed and certified rodent diet and water were provided ad libitum. Animals were acclimated for 3 days prior to dose administration. Environmental controls for the animal room were set to maintain a temperature of 18 to 26° C., a relative humidity of 50±20%, and a 12-hour light/12-hour dark cycle. As necessary, the 12-hour dark cycle was interrupted to accommodate study procedures. Animals were fasted overnight through 4 hours postdose on the day of dosing. At dosing, the animals weighed 160 to 178 g and were approximately 7 weeks of age. One animal/time point was sacrificed via exsanguination (cardiac puncture) under isoflurane anesthesia at 0.5, 1, 2, 4, 8, 24, 72, and 168 hours postdose.

[3] = Dynamic Vapor Sorption (DVS) / hygroscopicity; type: physicochemical; conditions: for DVS behaviour (figure legend): FIG. 17-21; for DVS result: Table 4; for Hygroscopicity (class): classified according to the European Pharmacopoeia; for Hygroscopicity (mass change): mass change in the range 0→85% r.h.; for DVS mass remaining higher than the original mass: upon lowering the relative humidity again (to 50% r.h.); for DVS water uptake: from 80% to 95% r.h. (equilibrium reached)
Experimental: DVS measurements (50%→0%→95%→50% r.h.) were performed on the samples of potassium salt 1, sodium salt 1, tromethamine salt 1, L-lysine salt and magnesium salt 2.

[4] = Crystallinity estimated from PXRD; type: physicochemical; parameters: key: +++ = high; ++ = good; + low
[5] = Aqueous solubility determination of salts; type: physicochemical; conditions: for pH (aqueous solubility): pH at aqueous solubility; for pH / Solubility: Table 10; for pH: pH of the filtrate; for Solubility: 500 rpm, free acid by HPLC
Experimental: Each salt was suspended in water and shaken for 24 h at 25° C. and 500 rpm. The resulting suspensions were filtered (0.1 μm filter). The obtained solid residues were analyzed by FT-Raman. The pH of the filtrate was measured, and the concentration of the free acid was determined by HPLC.

^14C-3-[5-(2-fluoro-phenyl)-[1,2,4]oxadiazol-3-yl]benzoic acid
Concentrations of radioactivity ([1]; Female, Exorbital lacrimal gland): 10.3 µg/g
Concentrations of radioactivity ([1]; Female, Harderian gland): 18.7 µg/g
Concentrations of radioactivity ([1]; Female, Intra-orbital lacrimal gland): 10.2 µg/g
Concentrations of radioactivity ([1]; Female, matrix cell blank (first line)): 1.41 µg/g
Concentrations of radioactivity ([1]; Male, Exorbital lacrimal gland): 21.1 µg/g
Concentrations of radioactivity ([1]; Male, Eye): 3.39 µg/g
Concentrations of radioactivity ([1]; Male, Harderian gland): 21.6 µg/g
Concentrations of radioactivity ([1]; Male, Intra-orbital lacrimal gland): 21.8 µg/g
Concentrations of radioactivity ([2]; Exorbital lacrimal gland, 0.5 hr): 28.0 µg/g
Concentrations of radioactivity ([2]; Exorbital lacrimal gland, 1 hr): 7.59 µg/g
Concentrations of radioactivity ([2]; Exorbital lacrimal gland, 2 hr): 22.4 µg/g
Concentrations of radioactivity ([2]; Exorbital lacrimal gland, 4 hr): 10.2 µg/g
Concentrations of radioactivity ([2]; Exorbital lacrimal gland, 8 hr): 8.09 µg/g
Concentrations of radioactivity ([2]; Exorbital lacrimal gland, 24 hr): BLQ (BLQ = below the limit of quantitation (<0.457 μg equivalents ^14C-3-[5-(2-fluoro-phenyl)-[1,2,4]oxadiazol-3-yl]benzoic acid))
Concentrations of radioactivity ([2]; Exorbital lacrimal gland, 72 hr): BLQ (BLQ = below the limit of quantitation (<0.457 μg equivalents ^14C-3-[5-(2-fluoro-phenyl)-[1,2,4]oxadiazol-3-yl]benzoic acid))
Concentrations of radioactivity ([2]; Eye (lens), 0.5 hr): BLQ (BLQ = below the limit of quantitation (<0.457 μg equivalents ^14C-3-[5-(2-fluoro-phenyl)-[1,2,4]oxadiazol-3-yl]benzoic acid))
Concentrations of radioactivity ([2]; Eye (lens), 1 hr): BLQ (BLQ = below the limit of quantitation (<0.457 μg equivalents ^14C-3-[5-(2-fluoro-phenyl)-[1,2,4]oxadiazol-3-yl]benzoic acid))
Concentrations of radioactivity ([2]; Eye (lens), 2 hr): BLQ (BLQ = below the limit of quantitation (<0.457 μg equivalents ^14C-3-[5-(2-fluoro-phenyl)-[1,2,4]oxadiazol-3-yl]benzoic acid))
Concentrations of radioactivity ([2]; Eye (lens), 4 hr): BLQ (BLQ = below the limit of quantitation (<0.457 μg equivalents ^14C-3-[5-(2-fluoro-phenyl)-[1,2,4]oxadiazol-3-yl]benzoic acid))
Concentrations of radioactivity ([2]; Eye (lens), 8 hr): BLQ (BLQ = below the limit of quantitation (<0.457 μg equivalents ^14C-3-[5-(2-fluoro-phenyl)-[1,2,4]oxadiazol-3-yl]benzoic acid))
Concentrations of radioactivity ([2]; Eye (lens), 24 hr): BLQ (BLQ = below the limit of quantitation (<0.457 μg equivalents ^14C-3-[5-(2-fluoro-phenyl)-[1,2,4]oxadiazol-3-yl]benzoic acid))
Concentrations of radioactivity ([2]; Eye, 0.5 hr): 4.59 µg/g
Concentrations of radioactivity ([2]; Eye, 1 hr): 1.78 µg/g
Concentrations of radioactivity ([2]; Eye, 2 hr): 3.62 µg/g
Concentrations of radioactivity ([2]; Eye, 4 hr): 2.69 µg/g
Concentrations of radioactivity ([2]; Eye, 8 hr): 2.08 µg/g
Concentrations of radioactivity ([2]; Eye, 24 hr): BLQ (BLQ = below the limit of quantitation (<0.457 μg equivalents ^14C-3-[5-(2-fluoro-phenyl)-[1,2,4]oxadiazol-3-yl]benzoic acid))
Concentrations of radioactivity ([2]; Hardenian gland, 0.5 hr): 46.8 µg/g
Concentrations of radioactivity ([2]; Hardenian gland, 1 hr): 16.0 µg/g
Concentrations of radioactivity ([2]; Hardenian gland, 2 hr): 38.2 µg/g
Concentrations of radioactivity ([2]; Hardenian gland, 4 hr): 18.1 µg/g
Concentrations of radioactivity ([2]; Hardenian gland, 8 hr): 13.0 µg/g
Concentrations of radioactivity ([2]; Hardenian gland, 24 hr): 1.59 µg/g
Concentrations of radioactivity ([2]; Intra-orbital lacrimal gland, 0.5 hr): 28.8 µg/g
Concentrations of radioactivity ([2]; Intra-orbital lacrimal gland, 1 hr): 10.3 µg/g
Concentrations of radioactivity ([2]; Intra-orbital lacrimal gland, 2 hr): 25.2 µg/g
Concentrations of radioactivity ([2]; Intra-orbital lacrimal gland, 4 hr): 11.7 µg/g
Concentrations of radioactivity ([2]; Intra-orbital lacrimal gland, 8 hr): 10.3 µg/g
Concentrations of radioactivity ([2]; Intra-orbital lacrimal gland, 24 hr): BLQ (BLQ = below the limit of quantitation (<0.457 μg equivalents ^14C-3-[5-(2-fluoro-phenyl)-[1,2,4]oxadiazol-3-yl]benzoic acid))
Concentrations of radioactivity ([2]; Uveal tract, 0.5 hr): 20.6 µg/g
Concentrations of radioactivity ([2]; Uveal tract, 1 hr): 10.4 µg/g
Concentrations of radioactivity ([2]; Uveal tract, 2 hr): 18.1 µg/g
Concentrations of radioactivity ([2]; Uveal tract, 4 hr): 6.09 µg/g
Concentrations of radioactivity ([2]; Uveal tract, 8 hr): 11.6 µg/g
Concentrations of radioactivity ([2]; Uveal tract, 24 hr): BLQ (BLQ = below the limit of quantitation (<0.457 μg equivalents ^14C-3-[5-(2-fluoro-phenyl)-[1,2,4]oxadiazol-3-yl]benzoic acid))

O=C([O-])c1cccc(-c2noc(-c3ccccc3F)n2)c1.[Na+] [Sodium salt 1]
DVS reversible mass change ([3]; 50% to 0% r.h. and again to 50% r.h.): 2 wt. %
DVS behaviour (figure legend) [3]: stepwise irreversible water uptake
DVS result [3]: acidic H not detected; DVS: hygroscopic sample, hydrate (increase of the mass is less than 15% and equal or greater than 2%)
Hygroscopicity (class) [3]: (very hygroscopic) (increase of the mass ≥15%)
DVS water uptake in one step ([3]; from 50% to 62% r.h.): Approximately 10 wt. %
DVS further water uptake, second step ([3]; humidity increased to 80% r.h. (equilibrium not reached)): ~6 wt. %
DVS water uptake up to 95% r.h. ([3]; humidity increased to 95% r.h.): 20 wt. %
Hygroscopicity (mass change) [3]: +19.52 wt %
DVS mass remaining higher than the original mass [3]: ~16 wt. %
Crystallinity [4]: ++
Aqueous solubility ([5]; Table 2, water, 24 h, 25° C.): 22 mg/mL
Aqueous solubility ([5]; Table 4): 22.22 mg/mL
pH (aqueous solubility) ([5]; Table 4): 8.3
pH [5]: 8.3
Solubility ([5]; water, 24 h, 25° C.): 22 mg/mL

NC(CO)(CO)CO.O=C(O)c1cccc(-c2noc(-c3ccccc3F)n2)c1 [Tromethamine salt 1]
DVS behaviour (figure legend) [3]: large reversible water uptake with hysteresis
DVS result [3]: hygroscopic sample; Aqueous solubility (increase of the mass is less than 15% and equal or greater than 2%)
DVS weight loss to a value lower than the original mass ([3]; below 70% r.h. on the way down): 3 wt. %
Hygroscopicity (class) [3]: (hygroscopic) (increase of the mass is less than 15% and equal or greater than 2%)
DVS water uptake [3]: ~25 wt. %
DVS mass change ([3]; humidity decreased to 0% r.h. and then raised to 80% r.h.): no significant mass change
Hygroscopicity (mass change) [3]: +3.59 wt %
DVS overall weight loss ([3]; whole DVS cycle): 3%
Crystallinity [4]: +++
Aqueous solubility ([5]; Table 2, water, 24 h, 25° C.): 18 mg/mL
pH [5]: 8.1
Solubility ([5]; water, 24 h, 25° C.): 18 mg/mL

O=C([O-])c1cccc(-c2noc(-c3ccccc3F)n2)c1.[K+] [Potassium salt 1]
DVS behaviour (figure legend) [3]: small irreversible water uptake
DVS result [3]: H not detected; DVS: hygroscopic sample, hydrate formation; (increase of the mass is less than 15% and equal or greater than 2%)
Hygroscopicity (class) [3]: (hygroscopic) (increase of the mass is less than 15% and equal or greater than 2%)
DVS water uptake [3]: roughly 3 wt. %
DVS mass loss ([3]; humidity decreased to 0% r.h. (equilibrium not reached)): ~6 wt. %
DVS water uptake (mass change) ([3]; humidity further increased to 80% r.h.): ~1.5 wt. %
Hygroscopicity (mass change) [3]: +7.81 wt %
DVS mass remaining higher than the original mass [3]: ~1 wt. %
Crystallinity [4]: +
Aqueous solubility ([5]; Table 2, water, 24 h, 25° C.): 57 mg/mL
Aqueous solubility ([5]; Table 4): 57.00 mg/mL
pH (aqueous solubility) ([5]; Table 4): 9.2
pH [5]: 9.2
Solubility ([5]; water, 24 h, 25° C.): 57 mg/mL

From patent US10233161B2, “Pharmaceutical compositions and salts of a 1,2,4-oxadiazole benzoic acid” (PTC Therapeutics, Inc., priority 2014, dated 2019)
